Measured values as given in patent US20250009716A1, “NOVEL INHIBITORS OF CLAUDIN-1 FOR THERAPEUTIC INTERVENTIONS” (BOARD OF REGENTS OF THE UNIVERSITY OF NEBRASKA, priority 2021, published 2025).
Entries after “also recorded” stand apart in the source; their conditions may differ.

Key:
[1] = tested on: claudin-1 overexpressing cells; experiment: Co-treatment with 5FU, inhibition of cell growth; format: cell-based; details: 16 in combination with 5-FU
From the text: Curve fitting analysis was done using four parametric logistic regression curve.
The CSC cells contribute to the generation of metastasis (16-19), and key CSC characteristics are highly relevant to metastasis, including invasive motility, and, resistance to apoptosis (20,21). […] Considering that chemoresistance is central to the CRC progression and metastasis, we further tested if adjuvant use of 16 with 5FU can have significant bearing upon these traits. Colon cancer cells were subjected to exogenous administration of 16 alone, or in combination with the 5-FU, the conventional anti-CRC drug. […] To further determine the mechanistic details the effect of 16 on association of claudin-1 and Src, SW480claudin-1 cells were treated with 16 or the vehicle and resultant cell lysate was subjected to Proximity ligation assay (PLA) or Co—IP.

[2] = Pharmacokinetics after single i.v. dose; format: in vivo, mice
Experimental: To determine the in vivo characteristics of this drug, a pharmacokinetic and tissue distribution study on 16 was performed. Following a single i.v. dose of 16 (1 mg/kg) in mice (C57B/16; n=5), serial blood samples were obtained at 0.08, 0.25, 0.75, 2, 4, 6, 8 and 24 hours after the injection and plasma samples were analyzed for 16 concentrations. Pharmacokinetic parameter values were obtained from the plasma concentration-time data using standard non-compartmental methods (WinNonlin, PharSight Corp). […] To assess the tissue distribution of 16, mice were sacrificed at 2, 8 and 24 hours after the i.v. administration of the drug. Measurable concentrations of 16 were detected in all studied tissues at 2, 8, and 24 h. […] Next, metabolic stability studies of 16 was evaluated using mouse liver S9 fractions for the in vitro assessment of phase I and II metabolism. […] Testosterone, 7-HC and diclofenac were used as positive controls, ensuring proper incubation conditions were maintained. […] The results of these in vitro drug metabolism studies guided the rational development of 16 structural analogs.
Pharmacokinetic parameter values were estimated from the plasma concentration-time data using standard noncompartmental methods and software (WinNonlin, PharSight Corp). […] Terminal elimination half-life (t1/2) was calculated by dividing 0.693 by terminal elimination rate constant Iz. Drug clearance (Cl) was calculated using standard equations. Area under the plasma concentration-time curve from 0 to 24 hours (AUCO-24) was calculated with the linear-log trapezoidal rule. The area under the plasma concentration-time curve from 0 to infinity (AUCO-infinity) was calculated as AUCO-24+C24/Iz. The absolute bioavailability (F) was calculated as the ratio between the AUCO-infinity from oral and intravenous routes using standard equations (FIG. 39).

SW480claudin-1 cells = experiment: Soft agar colony formation assay; format: cell-based
From the text: To this end, a library of molecules was synthesized in order to develop an initial SAR evaluation. The first compounds tested eliminated the acylated (thio) urea as well as the napthyl group and evaluated just the urea/phenyl compounds (Compounds 1-6). The methoxy group of the naphthalene ring system was needed when the benzimidazole group was present (16 vs. Compound 8). […] The result of metabolic stability was expressed as the percentage of drug remaining at each time. […] To further determine the effect of PDS-0330 on p-Src expression and association, cells were treated with Compound 1, 16 and PDS-0330. Expression and association with p-Src was unaffected with Compound 1 (negative control). The specificity of PDS-0330 for CLDN1 was further confirmed by treating SW480^CLDN1, HCT116^CLDN2 (overexpressing another tight junction protein) or normal IEC-6 cells with PDS-0330 (FIG. 12).

[3] = tested on: SW620 cells xenograft tumors; experiment: SW620 xenograft tumors; format: in vivo, athymic mice
Experimental: SW620 cells were injected into dorsal flanks of athymic mice to form xenograft tumors. PDS-0330 was injected (5 and 10 mg/kg) when tumors became palpable. Effect on tumor volume and size was determined in time-dependent manner.
The development of flank xenograft tumors in claudin-1 overexpressed SW620 cells injected nude mice was examined between vehicle and PDS-0330 (5 mg/kg and 10 mg/kg) treatment (n=5 mice per group). Representative images of tumor containing mice from the vehicle and PDS-0330 (10 mg/kg).

Row | Structure (SMILES) | combination effect with 5FU [1] | clearance ([2]; 1 mg/kg i.v.) | time up to which detectable in plasma ([2]; 1 mg/kg i.v.) | peak concentration ([2]; 1 mg/kg i.v., plasma) | mouse behavior or weight ([2]; 24 hours after single i.v. injection) | AUC ([2]; C57B/16, mouse, iv, 1 mg/kg i.v., plasma) | half-life ([2]; C57B/16, mouse, plasma, iv, 1 mg/kg i.v., read-out: elimination t1/2 (converted)) | Vd ([2]; C57B/16, mouse, plasma, iv, 1 mg/kg i.v., read-out: volume of distribution) | effect on soft agar colony formation (SW480claudin-1 cells) | tumor size ([3]; 5 and 10 mg/kg) | tumor weight ([3]; mouse, in vivo)
1 | COc1cc2ccccc2cc1C(=O)NC(=S)Nc1ccc(-c2nc3ccccc3[nH]2)cc1 [Compound 16] | significant synergy; also recorded: synergistic effect in inhibition of cell growth | 13 mL/min/kg | up to 24 hrs | 798 ng/mL | no change in mouse behavior or weight | 1210 ng·h/mL | 7 h | 8.4 L/kg |  |  | 
2 | O=C(NC(=S)Nc1ccc(-c2nc3ccccc3o2)cc1)c1ccc2ccccc2c1 [PDS-0330] |  |  |  |  |  |  |  |  | significantly inhibited | reduces tumor size in mice | significantly inhibited tumor weight
